Experimental data published in paper PMC3005334 (Cell, 2010).

What was measured:
[1] = system: Atg1, Psk2 and denatured Ypk1; assay: In vitro small metabolite-protein binding assay; design: species or system Saccharomyces cerevisiae; settings: denatured protein or control proteins; indicates non-specific adsorption
[2] = target: T1, Kin4 (Saccharomyces cerevisiae, UniProt Q01919); assay: Affinity purification of tagged protein kinase and LC-MS of bound metabolites; format: binding; settings: 379.337 amu at 10.98 min
T1 sequence (Q01919 1-800): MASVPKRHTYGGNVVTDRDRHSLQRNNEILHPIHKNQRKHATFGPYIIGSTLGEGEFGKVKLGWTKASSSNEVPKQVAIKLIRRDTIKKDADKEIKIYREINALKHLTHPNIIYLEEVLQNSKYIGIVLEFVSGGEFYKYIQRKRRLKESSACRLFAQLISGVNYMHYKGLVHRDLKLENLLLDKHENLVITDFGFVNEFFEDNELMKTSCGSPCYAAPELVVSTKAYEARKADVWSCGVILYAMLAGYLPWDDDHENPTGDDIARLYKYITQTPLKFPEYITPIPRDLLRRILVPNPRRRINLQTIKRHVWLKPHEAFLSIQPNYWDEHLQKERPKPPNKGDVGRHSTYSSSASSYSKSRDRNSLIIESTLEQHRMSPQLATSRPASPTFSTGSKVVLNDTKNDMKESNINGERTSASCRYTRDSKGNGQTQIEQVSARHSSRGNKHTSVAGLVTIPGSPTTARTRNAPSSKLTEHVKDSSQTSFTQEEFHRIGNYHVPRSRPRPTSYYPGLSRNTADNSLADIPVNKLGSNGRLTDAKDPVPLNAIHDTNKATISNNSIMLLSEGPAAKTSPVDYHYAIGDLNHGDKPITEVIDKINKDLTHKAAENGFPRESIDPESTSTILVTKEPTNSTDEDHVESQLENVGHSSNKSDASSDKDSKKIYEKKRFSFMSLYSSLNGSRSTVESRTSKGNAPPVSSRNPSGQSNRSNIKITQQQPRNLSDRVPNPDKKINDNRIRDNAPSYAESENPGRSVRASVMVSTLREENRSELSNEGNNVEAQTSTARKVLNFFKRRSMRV

[3] = system: 103 protein kinases; assay: Affinity purification LC-MS profiling of the panel of yeast protein kinases; format: binding, Saccharomyces cerevisiae; settings: of 103 kinases analyzed
[4] = target: T2, Ypk1 (Saccharomyces cerevisiae, UniProt P12688); assay: In vitro kinase activity assay; format: biochemical
T2 sequence (P12688 1-680): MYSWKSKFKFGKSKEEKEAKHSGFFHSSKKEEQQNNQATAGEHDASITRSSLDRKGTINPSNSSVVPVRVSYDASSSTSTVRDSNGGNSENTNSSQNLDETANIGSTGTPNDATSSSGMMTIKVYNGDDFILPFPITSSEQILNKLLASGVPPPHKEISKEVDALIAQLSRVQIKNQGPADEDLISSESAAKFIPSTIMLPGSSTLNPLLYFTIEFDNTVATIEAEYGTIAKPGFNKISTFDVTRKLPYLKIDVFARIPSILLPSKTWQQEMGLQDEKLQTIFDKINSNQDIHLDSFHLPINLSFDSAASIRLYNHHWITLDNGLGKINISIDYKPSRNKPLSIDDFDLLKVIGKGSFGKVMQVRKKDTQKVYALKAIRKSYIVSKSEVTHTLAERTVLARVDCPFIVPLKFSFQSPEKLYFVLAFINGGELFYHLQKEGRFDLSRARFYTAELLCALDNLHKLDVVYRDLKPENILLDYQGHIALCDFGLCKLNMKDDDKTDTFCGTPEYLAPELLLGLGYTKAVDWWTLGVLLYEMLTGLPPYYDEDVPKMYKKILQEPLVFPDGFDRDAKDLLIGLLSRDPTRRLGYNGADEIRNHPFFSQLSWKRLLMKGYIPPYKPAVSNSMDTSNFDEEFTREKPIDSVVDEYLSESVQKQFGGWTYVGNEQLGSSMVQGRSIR

[5] = target: Erg4 (Saccharomyces cerevisiae, UniProt P25340); format: binding; settings: in vivo bound, LC-MS; natural synthesizing enzyme
[6] = system: Ypk1, Hal5, and Rck2; assay: In vitro small metabolite-protein binding assay; design: species or system Saccharomyces cerevisiae; settings: fixed amount of protein; indicates specific binding

Erg4, sequence (P25340 whole entry): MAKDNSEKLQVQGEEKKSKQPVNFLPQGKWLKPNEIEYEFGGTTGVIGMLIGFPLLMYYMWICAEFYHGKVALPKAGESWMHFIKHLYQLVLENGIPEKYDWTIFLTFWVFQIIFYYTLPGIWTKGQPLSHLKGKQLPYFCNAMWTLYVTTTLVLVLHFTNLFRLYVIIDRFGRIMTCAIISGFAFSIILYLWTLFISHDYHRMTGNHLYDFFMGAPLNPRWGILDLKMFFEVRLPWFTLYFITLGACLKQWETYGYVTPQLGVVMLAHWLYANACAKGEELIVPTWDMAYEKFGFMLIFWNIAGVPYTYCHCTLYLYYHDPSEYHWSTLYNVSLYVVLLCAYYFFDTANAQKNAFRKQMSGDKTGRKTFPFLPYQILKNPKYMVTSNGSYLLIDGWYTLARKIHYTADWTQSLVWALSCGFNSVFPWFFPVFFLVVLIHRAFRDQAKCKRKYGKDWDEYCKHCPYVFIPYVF

CC(C)[C@@H](C)/C=C/[C@@H](C)[C@H]1CC[C@H]2C3=CC=C4C[C@@H](O)CC[C@]4(C)[C@H]3CC[C@]12C [ergosterol]
shape of binding curve over increasing free ergosterol [1]: close to linear | binding to Kin4 [2]: specific binding | number of protein kinases associated with the metabolite [3]: 15 | Ypk1 in vitro kinase activity with increasing concentrations of ergosterol ([4]; Ypk1 from erg4Δ strain lacking ergosterol): could not be stimulated | Ypk1 in vitro kinase activity with increasing concentrations of ergosterol ([4]; Ypk1 from wild type cells grown in the presence of 0.4 mM ergosterol): could be stimulated to a similar extent | binding to Erg4 [5]: bound | shape of binding curve over increasing free ergosterol [6]: saturable curve
